Experimental data as given in patent US6355634B1, “Aromatic compounds” (Bayer Aktiengesellschaft, priority 1990, dated 2002).

Experiments:
Type in all cases: in vivo
Cercospora arachidicola = assay: Action against Cercospora arachidicola on peanut plants (curative action); settings: Mycosphaerella arachidis, 288 h, 160 ppm spray, peanut cv. Tamnut, evaluated 12 days after treatment, read-out: action (leaf area infected with Cercospora arachidicola as a percentage compared with the infected control)
Method: Action Against Cercospora arachidicola on Peanut Plants (Curative Action)
Two peanut plants cv. “Tamnut” in the 4-leaf stage are sprayed with a conidia suspension of Cercospora arachidicola (approx. 200,000 conidia/ml) and subsequently incubated at 25-26° C. and under dew-point conditions. After two days, the plants are sprayed thoroughly from all sides with a spray mixture prepared with a wettable powder of the active substance (with 160 ppm of active ingredient). The treated plants are subsequently incubated in a controlled-environment cabinet under the following conditions: 25-27° C. and 80% atmospheric humidity during the day, 20° C. and dew-point conditions during the night; the photoperiod in each case is 16 hours. 12 days after the treatment, the test is evaluated by determining the leaf area infected with Cercospora arachidicola as a percentage compared with the infected control.

Venturia inaequalis = Venturia inaequalis (curative action) on apple seedlings; settings: 50 ppm spray, apple cv. Golden Delicious, evaluated 9-10 days after treatment, read-out: action (leaf area covered in Venturia inaequalis as a percentage compared with the infected control)
Method: Venturia inaequalis (Curative Action)
Two apple seedlings cv. “Golden Delicious” are sprayed with a conidia suspension of Venturia inaequalis and subsequently incubated at 18° C. and under dew-point conditions. After 24 hours, the plants are sprayed thoroughly from all sides with a spray mixture prepared with a wettable powder of the active substance (with 50 ppm of active ingredient). The treated apple seedlings are subsequently cultured further in the greenhouse. 9-10 days after the treatment, the test is evaluated by determining the leaf area covered in Venturia inaequalis as a percentage compared with the infected control.

Alternaria brassicae = Alternaria brassicae (protective action) on cabbage seedlings; settings: 50 ppm spray, cabbage cv. Vorbote, evaluated 2-5 days after infection, read-out: action (leaf area infected with Alternaria brassicae as a percentage compared with the infected, untreated control)
Method: Alternaria brassicae (Protective Action)
4 cabbage seedlings, cv. “Vorbote”, in the 6-leaf stage, distributed to 2 pots, are sprayed thoroughly with a spray mixture prepared with a wettable powder of the active substance (with 50 ppm of active ingredient) and subsequently cultured further in a controlled-environment cabinet at 19° C. and with 16 hours illumination per day. Two days after the treatment, the plants are infected by spraying with an aqueous conidia suspension (approx. 30,000 conidia/ml). The cabbage plants are then incubated at 24-26° C., under dew-point conditions and with a photoperiod of 16 hours. The test is evaluated 2-5 days after the infection by determining the leaf area infected with Alternaria brassicae as a percentage compared with the infected, untreated control.

Plasmopara viticola = Plasmopara viticola (protective action) on grapevine seedlings; settings: 144 h, 160 ppm spray, grapevine cv. Riesling x Sylvaner, day 6 after infection, read-out: action (leaf area infected with Plasmopara viticola as a percentage compared with the infected, untreated control)
Method: Plasmopara viticola (Protective Action)
2 grapevine seedlings cv. Riesling×Sylvaner, each in the 4-5 leaf stage, are sprayed thoroughly from all sides with a spray mixture prepared with a wettable powder of the active substance (with 160 ppm of active ingredient) and subsequently cultured further in a controlled-environment cabinet at 17° C., 70-80% relative atmospheric humidity and with a photoperiod of 16 hours. After 6 days, the test plants are infected by spraying the undersides of the leaves with zoosporangia of Plasmopara viticola, suspended in distilled water (approx. 300,000 sporangia/ml). The grapevine plants are then incubated as follows: 1 day at 22° C. and under dew-point conditions in the dark and subsequently 4 days in the greenhouse. To induce fructification of Plasmopara viticola, the grapevines are transferred to a controlled-environment cabinet with dew-point conditions at 22° C. on day 5 after the infection.
The tests are carried out in each case on day 6 after the infection by determining the leaf area infected with Plasmopara viticola as a percentage compared with the infected, untreated control.

Erysiphe graminis = Erysiphe graminis (protective action) on wheat seedlings; settings: Blumeria graminis, 168 h, 160 ppm spray, wheat cv. Lita, evaluated 7 days after infection, read-out: action (leaf area covered in Erysiphe graminis as a percentage compared with the infected control)
Method: Erysiphe graminis (Protective Action)
30-40 wheat seedlings cv. “Lita” in the 1-leaf stage (distributed to two pots of ø7 cm) are sprayed thoroughly with a spray mixture prepared with a wettable powder of the active substance (with 160 ppm of active ingredient) and then cultured further in the greenhouse. One day after the treatment, the plants are dusted with conidia of Erysiphe graminis. The test is evaluated 7 days after the infection by determining the size of the leaf area covered in Erysiphe graminis as a percentage compared with the infected control.
Untreated, but infected control plants show a level of infection with Erysiphe of 100%.

SMILES | pest or weed control at 160 ppm (Cercospora arachidicola) | pest or weed control at 50 ppm (Venturia inaequalis) | pest or weed control at 50 ppm (Alternaria brassicae) | pest or weed control at 160 ppm (Erysiphe graminis) | also measured
CO/N=C(\C(=O)OC)c1ccccc1CON=C(C)c1ccc(OC)c(CSC)c1 [Compound 49] | > 75% | > 75% | – | – | –
CO/N=C(\C(=O)OC)c1ccccc1CON=C(C)c1cccs1 [Compound 14] | > 75% | > 75% | > 75% | – | –
CO/N=C(\C(=O)OC)c1ccccc1CON=C(C)C(=O)c1ccc2c(c1)OCO2 [Compound 64] | – | > 75% | – | – | –
CO/N=C(\C(=O)OC)c1ccccc1CON=C(C)c1ccc2c(c1)OCO2 [Compound 38] | > 75% | > 75% | > 75% | – | pest or weed control at 160 ppm (Plasmopara viticola): > 75%
CO/N=C(\C(=O)OC)c1ccccc1CON=C(C)c1cccc(SC#N)c1 [Compound 71] | > 75% | – | – | – | –
CO/N=C(\C(=O)OC)c1ccccc1CON=C(C)c1cc(OC)c(OC)c(OC)c1 [Compound 20] | – | > 75% | > 75% | – | –
CO/N=C(\C(=O)OC)c1ccccc1CON=C(C)c1ccc([N+](=O)[O-])cc1 [Compound 25] | > 75% | – | > 75% | > 75% | –
CO/N=C(\C(=O)OC)c1ccccc1CON=C(C)c1cccc(OCC2CC2)c1 [Compound 68] | > 75% | – | – | – | –
CO/N=C(\C(=O)OC)c1ccccc1CON=C(C)c1ccc(OC)c([N+](=O)[O-])c1 [Compound 82] | – | > 75% | – | – | pest or weed control at 160 ppm (Plasmopara viticola): > 75%
CO/N=C(\C(=O)OC)c1ccccc1CON=C(c1cccc(C(F)(F)F)c1)C(F)(F)F [Compound 39] | – | – | – | > 75% | –
C=CCOc1cccc(C(C)=NOCc2ccccc2/C(=N/OC)C(=O)OC)c1 [Compound 66] | > 75% | > 75% | – | – | –
CO/N=C(\C(=O)OC)c1ccccc1CON=C(C)c1cccc(OCC#N)c1 [Compound 92] | – | – | > 75% | – | –
CO/N=C(\C(=O)OC)c1ccccc1CON=C(SC)c1ccccc1 [Compound 124] | – | > 75% | > 75% | – | –
CO/N=C(\C(=O)OC)c1ccccc1CON=C(SC)c1cccc(C(F)(F)F)c1 [Compound 126] | – | – | – | > 75% | –
CO/N=C(\C(=O)OC)c1ccccc1CON=C(C)C(=O)c1cccc(Br)c1 [Compound 129] | > 75% | – | – | – | pest or weed control at 160 ppm (Plasmopara viticola): > 75%
CO/N=C(\C(=O)OC)c1ccccc1CON=C(C)c1ccc(Cl)c(Cl)c1 [Compound 13] | > 75% | > 75% | > 75% | > 75% | –
CO/N=C(\C(=O)OC)c1ccccc1CON=C(c1ccc(F)cc1)C1CC1 [Compound 89] | – | – | – | > 75% | –
CO/N=C(\C(=O)OC)c1ccccc1CON=C(OC)c1ccc(Cl)cc1 [Compound 127] | – | – | – | > 75% | –
CO/N=C(\C(=O)OC)c1ccccc1CON=C(c1ccc2c(c1)OCO2)C1CC1 [Compound 41] | > 75% | – | – | – | pest or weed control at 160 ppm (Plasmopara viticola): > 75%
CO/N=C(\C(=O)OC)c1ccccc1CON=C(C)c1cccc(F)c1 [Compound 40] | > 75% | – | – | > 75% | –
CO/N=C(\C(=O)OC)c1ccccc1CON=C(C)c1cc(Cl)cc(Cl)c1 [Compound 136] | – | – | > 75% | – | –
CO/N=C(\C(=O)OC)c1ccccc1CON=C(C)c1ccc(OC(F)(F)C(F)(F)F)cc1 [Compound 106] | – | > 75% | – | – | –
CO/N=C(\C(=O)OC)c1ccccc1CON=C(C)C(C)=CC=C(C)CCC=C(C)C [Compound 23] | – | – | > 75% | > 75% | –
CO/N=C(\C(=O)OC)c1ccccc1CON=C(SC)c1ccc(Cl)cc1 [Compound 125] | – | – | – | – | pest or weed control at 160 ppm (Plasmopara viticola): > 75%

SMILES | pest or weed control at 160 ppm (Cercospora arachidicola) | pest or weed control at 50 ppm (Venturia inaequalis) | pest or weed control at 50 ppm (Alternaria brassicae) | pest or weed control at 160 ppm (Erysiphe graminis) | also measured
CO/N=C(\C(=O)OC)c1ccccc1CON=C(c1ccc2ccccc2c1)C1CC1 [Compound 150] | – | – | > 75% | – | pest or weed control at 160 ppm (Plasmopara viticola): > 75%
CO/N=C(\C(=O)OC)c1ccccc1CON=C(c1ccc(Oc2ccccc2)cc1)C1CC1 [Compound 149] | – | – | – | > 75% | –
CO/N=C(\C(=O)OC)c1ccccc1CON=C(C)c1cccc(C#N)c1 [Compound 70] | – | – | – | > 75% | –
CCC(=NOCc1ccccc1/C(=N/OC)C(=O)OC)c1ccccc1 [Compound 28] | – | > 75% | > 75% | – | pest or weed control at 160 ppm (Plasmopara viticola): > 75%
CCCC(=NOCc1ccccc1/C(=N/OC)C(=O)OC)c1ccccc1 [Compound 18] | – | – | – | > 75% | –
C#CCOc1cccc(C(C)=NOCc2ccccc2/C(=N/OC)C(=O)OC)c1 [Compound 67] | – | – | > 75% | – | –
CO/N=C(\C(=O)OC)c1ccccc1CON=C(C)c1cc(C)ccc1F [Compound 137] | – | – | – | > 75% | –
CO/N=C(\C(=O)OC)c1ccccc1CON=C(C)C(C)Oc1ccccc1 (centres unmarked) [Compound 37] | – | – | – | > 75% | –
CO/N=C(\C(=O)OC)c1ccccc1CON=C(c1cccc(Cl)c1)C(F)(F)F [Compound 141] | – | – | – | > 75% | –
CO/N=C(\C(=O)OC)c1ccccc1CON=C(c1ccc(Cl)cc1)C(F)(F)F [Compound 142] | – | > 75% | – | – | –
CO/N=C(\C(=O)OC)c1ccccc1CON=C(C)c1ccc(OC)cc1 [Compound 19] | > 75% | > 75% | – | – | –
CO/N=C(\C(=O)OC)c1ccccc1CON=C(C)c1cccc([N+](=O)[O-])c1 [Compound 26] | > 75% | – | > 75% | – | –
CO/N=C(\C(=O)OC)c1ccccc1CON=C(C)c1ccc2cc(OC)ccc2c1 [Compound 119] | – | – | – | > 75% | –
CO/N=C(\C(=O)OC)c1ccccc1CON=C(c1cccc(Cl)c1)C1CC1 [Compound 145] | > 75% | – | – | – | –
CO/N=C(\C(=O)OC)c1ccccc1CON=C(c1ccc2ccccc2c1)C(F)(F)F [Compound 143] | – | – | > 75% | – | –
COCc1cc(C(C)=NOCc2ccccc2/C(=N/OC)C(=O)OC)ccc1OC [Compound 83] | > 75% | > 75% | – | – | –
CO/N=C(\C(=O)OC)c1ccccc1CON=C(c1cccc(Br)c1)C1CC1 [Compound 147] | – | > 75% | – | – | pest or weed control at 160 ppm (Plasmopara viticola): > 75%
CO/N=C(\C(=O)OC)c1ccccc1CON=C(C)c1ccccc1 [Compound 134] | – | > 75% | – | – | –
CO/N=C(\C(=O)OC)c1ccccc1CON=C(C)C(=O)c1cccc([N+](=O)[O-])c1 [Compound 130] | > 75% | – | > 75% | – | –
CO/N=C(\C(=O)OC)c1ccccc1CON=C(c1ccccc1)C(F)(F)F [Compound 27] | – | – | – | > 75% | –
CO/N=C(\C(=O)OC)c1ccccc1CON=C(C)Cc1ccc2c(c1)OCO2 [Compound 54] | – | > 75% | > 75% | – | –
CCOc1cc(C(C)=NOCc2ccccc2/C(=N/OC)C(=O)OC)ccc1OC [Compound 85] | – | > 75% | – | – | –
CO/N=C(\C(=O)OC)c1ccccc1CON=CC(=O)c1cccs1 [Compound 105] | – | > 75% | > 75% | > 75% | –
